Reference: patent publication US20230017532A1 (Hoffmann-La Roche Inc., priority 2018, published 2023)
Counter-ions that a name gives are not always drawn.

tested on: Acinetobacter baumannii ATCC17978; experiment: Antimicrobial susceptibility testing: 90% growth inhibitory concentration (IC90) determination, Iso-Sensitest broth, OD 600 nm; format: cell-based; conditions: Acinetobacter baumannii, ATCC17978, 16 h, 90% growth inhibitory concentration, Acinetobacter baumannii ATCC17978, Iso-Sensitest broth, OD 600 nm over 16 h; read-out: ATCC 17978 IC90
Method in brief: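 Growth of bacteria (~5×10^5 CFU/ml, Iso-Sensitest medium, 35±2 °C) was followed by OD at 600 nm at 20-min intervals over 16 h against a 10-point twofold compound series (e.g. 50–0.097 μM final). Concentration giving 90% inhibition in log phase was reported.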

First: Cc1cc(Nc2nccn3c(-c4ccc(OC(F)F)cc4)cnc23)ccc1C(=O)NCCOCCNC(=O)CN(C)C [Example 127, 4-[[3-[4-(difluoromethoxy)phenyl]imidazo [1,2-a]pyrazin-8-yl]amino]-N-[2-[2-[[2-(dimethyl-amino)acetyl]amino]ethoxy]ethyl]-2-methylbenzamide]
Second: Cc1cc(Nc2nccn3c(-c4ccc(OC(F)F)cc4)cnc23)ccc1C(=O)NCCOCCNC(=O)CN(CCO)CCO [Example 146, N-[2-[2-[[2-[bis(2-hydroxyethyl)amino]acetyl]amino]ethoxy]ethyl]-4-[[3-[4-(difluoromethoxy)phenyl]imidazo [1,2-a]pyrazin-8-yl]amino]-2-methylbenzamide]
The IC90 of the first is 1.8-fold lower: 0.67 µM for the first, 1.2 µM for the second.

Compared with `CCNCCCN(CC)C(=O)c1ccc(Nc2nccn3c(-c4ccc(OC)c(F)c4)cnc23)cc1C` [Example 128, N-ethyl-N-[3-(ethylamino)propyl]-4-[[3-(3-fluoro-4-methoxyphenyl)imidazo[1,2-a]pyrazin-8-yl]amino]-2-methyl-benzamide], `COc1ccc(-c2cnc3c(Nc4ccc(C(=O)N(C)CCN(C)CCO)c(C)c4)nccn23)cc1F` [Example 144, 4-[[3-(3-fluoro-4-methoxyphenyl)imidazo[1,2-a]pyrazin-8-yl]amino]-N-[2-[2-hydroxyethyl (methyl)amino]ethyl]-N,2-dimethyl-benzamide] is 1.8-fold lower in IC90: 3.4 µM for the first, 1.9 µM for the second.

First: Cc1cc(Nc2nccn3c(-c4ccc(OC(F)F)cc4)cnc23)ccc1C(=O)NCCOCCO [Example 129, 4-[[3-[4-(difluoromethoxy)phenyl]imidazo [1,2-a]pyrazin-8-yl]amino]-N-[2-(2-hydroxyethoxy)ethyl]-2-methylbenzamide]
Second: Cc1cc(Nc2nccn3c(-c4ccc(OC(F)F)cc4)cnc23)ccc1C(=O)NCCOCCOCCO [Example 149, 4-[[3-[4-(difluoro-methoxy)phenyl]imidazo [1,2-a]pyrazin-8-yl]amino]-N-[2-[2-(2-hydroxyethoxy)ethoxy]ethyl]-2-methylbenzamide]
The IC90 of the first is 1.8-fold lower: 0.72 µM for the first, 1.3 µM for the second.

Compared with `COc1ccc(-c2cnc3c(Nc4ccc(C(=O)N(C)CCOCCN5CCN(C6CC6)CC5)c(C)c4)nccn23)cc1F` [Example 130, N-[2-[2-(4-cyclopropyl-piperazin-1-yl)ethoxy]ethyl]-4-[[3-(3-fluoro-4-methoxyphenyl)imidazo[1,2-a]pyrazin-8-yl]amino]-N,2-dimethyl-benzamide], `COc1ccc(-c2cnc3c(Nc4ccc(C(=O)N(C)CCOCCN5CCN(C6COC6)CC5)c(C)c4)nccn23)cc1F` [Example 151, 4-[[3-(3-fluoro-4-methoxyphenyl)imidazo[1,2-a]pyrazin-8-yl]amino]-N,2-dimethyl-N-[2-[2-[4-(oxetan-3-yl)piperazin-1-yl]ethoxy]ethyl] benzamide] is 2.1-fold higher in IC90: 0.76 µM for the first, 1.6 µM for the second.

`COc1ccc(-c2cnc3c(Nc4ccc(C(=O)N(C)CCOCCN5CCNCC5)c(C)c4)nccn23)cc1F` [Example 131, 4-[[3-(3-fluoro-4-methoxyphenyl)imidazo[1,2-a]pyrazin-8-yl]amino]-N,2-dimethyl-N-[2-(2-piperazin-1-ylethoxy)ethyl]benzamide] and `COc1ccc(-c2cnc3c(Nc4ccc(C(=O)N(C)CCOCCN5CCNCC5)c(C)c4)nccn23)cc1` [Example 133, formic acid; 4-[[3-(4-methoxyphenyl)imidazo[1,2-a]pyrazin-8-yl]amino]-N,2-dimethyl-N-[2-(2-piperazin-1-ylethoxy)ethyl] benzamide] are within 1.5-fold of each other in IC90: 0.77 µM for the first, 0.79 µM for the second.

Going from `Cc1cc(Nc2nccn3c(-c4ccc(OC(F)F)cc4)cnc23)ccc1C(=O)NCCOCCS(C)(=O)=O` [Example 132, 4-[[3-[4-(difluoro-methoxy)phenyl]imidazo [1,2-a]pyrazin-8-yl]amino]-2-methyl-N-[2-(2-methylsulfonyl-ethoxy)ethyl] benzamide] to `COC(=O)COCCOCCNC(=O)c1ccc(Nc2nccn3c(-c4ccc(OC(F)F)cc4)cnc23)cc1C` [Example 156, methyl 2-[2-[2-[[4-[[3-[4-(difluoro-methoxy)phenyl]imidazo [1,2-a]pyrazin-8-yl]amino]-2-methylbenzoyl]amino]ethoxy]ethoxy]acetate], the IC90 rises from 0.78 µM to 2.4 µM (3.1-fold).

Compared with `Cc1cc(Nc2nccn3c(-c4ccc(OC(F)F)cc4)cnc23)ccc1C(=O)NCCOCCN1CCNCC1` [Example 134, 4-[[3-[4-(difluoromethoxy)phenyl]imidazo [1,2-a]pyrazin-8-yl]amino]-2-methyl-N-[2-(2-piperazin-1-ylethoxy)ethyl] benzamide; hydrochloride], `Cc1cc(Nc2nccn3c(-c4ccc(OC(F)F)cc4)cnc23)ccc1C(=O)NCCOCCNC(=O)CN1CCNCC1` [Example 153, 4-[[3-[4-(difluoro-methoxy)phenyl]imidazo [1,2-a]pyrazin-8-yl]amino]-2-methyl-N-[2-[2-[(2-piperazin-1-ylacetyl)amino)ethoxy]ethyl] benzamide; hydrochloride] is 2.5-fold higher in IC90: 0.8 µM for the first, 2 µM for the second.

`COc1ccc(-c2cnc3c(Nc4ccc(C(=O)NCCOCC(=O)N5CCOC(CN)C5)c(C)c4)nccn23)cc1F` (centres unmarked) [Example 135, N-[2-[2-[2-(aminomethyl)morpholin-4-yl]-2-oxoethoxy]ethyl]-4-[[3-(3-fluoro-4-methoxyphenyl)imidazo[1,2-a]pyrazin-8-yl]amino]-2-methylbenzamide; hydrochloride] and `COc1ccc(-c2cnc3c(Nc4ccc(C(=O)N(C)CCOCCN5CCOC(CN)C5)c(C)c4)nccn23)cc1F` (centres unmarked) [Example 137, N-[2-[2-[2-(aminomethyl)morpholin-4-yl]ethoxy]ethyl]-4-[[3-(3-fluoro-4-methoxyphenyl)imidazo[1,2-a]pyrazin-8-yl]amino]-N,2-dimethyl-benzamide; hydrochloride] are within 1.5-fold of each other in IC90: 0.82 µM for the first, 0.94 µM for the second.

`Cc1cc(Nc2nccn3c(-c4ccc(OC(F)F)cc4)cnc23)ccc1C(=O)N(C)CCOCCN` [Example 136, N-[2-(2-aminoethoxy)ethyl]-4-[[3-[4-(difluoro-methoxy)phenyl]imidazo [1,2-a]pyrazin-8-yl]amino]-N,2-dimethyl-benzamide; hydrochloride] and `Cc1cc(Nc2nccn3c(-c4ccc(Cl)cc4)cnc23)ccc1C(=O)N(C)CCOCCN` [Example 138, N-[2-(2-aminoethoxy)ethyl]-4-[[3-(4-chlorophenyl)imidazo[1,2-a]pyrazin-8-yl]amino]-N,2-dimethyl-benzamide; hydrochloride] are within 1.5-fold of each other in IC90: 0.86 µM for the first, 0.96 µM for the second.

Compared with `Cc1cc(Nc2nccn3c(-c4ccc(OC(F)F)cc4)cnc23)ccc1C(=O)NCCOCCOCCOCCN=[N+]=[N-]` [Example 139, N-[2-[2-[2-(2-azidoethoxy)ethoxy]ethoxy]ethyl]-4-[[3-[4-(difluoro-methoxy)phenyl]imidazo [1,2-a]pyrazin-8-yl]amino]-2-methylbenzamide], `Cc1cc(Nc2nccn3c(-c4ccc(OC(F)F)cc4)cnc23)ccc1C(=O)NCCOCCOCCOCCO` [Example 152, 4-[[3-[4-(difluoro-methoxy)phenyl]imidazo [1,2-a]pyrazin-8-yl]amino]-N-[2-[2-[2-(2-hydroxyethoxy)ethoxy]ethoxy]ethyl]-2-methylbenzamide] is 1.6-fold higher in IC90: 1 µM for the first, 1.6 µM for the second.

`COc1ccc(-c2cnc3c(Nc4ccc(C(=O)N(C)CCOCCN5CCN(C=O)CC5)c(C)c4)nccn23)cc1F` [Example 140, 4-[[3-(3-fluoro-4-methoxyphenyl)imidazo[1,2-a]pyrazin-8-yl]amino]-N-[2-[2-(4-formylpiperazin-1-yl)ethoxy]ethyl]-N,2-dimethyl-benzamide] and `Cc1cc(Nc2nccn3c(-c4ccc(OC(F)F)cc4)cnc23)ccc1C(=O)NCCOCCNC(=O)CN1CCN(C)CC1` [Example 143, 4-[[3-[4-(difluoro-methoxy)phenyl]imidazo [1,2-a]pyrazin-8-yl]amino]-2-methyl-N-[2-[2-[[2-(4-methylpiperazin-1-yl)acetyl]amino]ethoxy]ethyl] benzamide] are within 1.5-fold of each other in IC90: 1 µM for the first, 1.2 µM for the second.

`CCCCC(=O)NCCOCCNC(=O)c1ccc(Nc2nccn3c(-c4ccc(OC)cc4)cnc23)cc1C` [Example 141, 4-[[3-(4-methoxyphenyl)imidazo[1,2-a]pyrazin-8-yl]amino]-2-methyl-N-[2-[2-(pentanoylamino)ethoxy]ethyl] benzamide] and `COc1ccc(-c2cnc3c(Nc4ccc(C(=O)NCCOCCNC(=O)CO)c(C)c4)nccn23)cc1` [Example 148, N-[2-[2-[(2-hydroxyacetyl)amino]ethoxy]ethyl]-4-[[3-(4-methoxyphenyl)imidazo[1,2-a]pyrazin-8-yl]amino]-2-methylbenzamide] are within 1.5-fold of each other in IC90: 1 µM for the first, 1.3 µM for the second.

`COc1ccc(-c2cnc3c(Nc4ccc(C(=O)NCCOCCN)c(F)c4)nccn23)cc1` [Example 145, N-[2-(2-aminoethoxy)ethyl]-2-fluoro-4-[[3-(4-methoxyphenyl)imidazo[1,2-a]pyrazin-8-yl]amino] benzamide; hydrochloride] and `COc1ccc(-c2cnc3c(Nc4ccc(C(=O)NCCOCCn5nccn5)c(C)c4)nccn23)cc1` [Example 147, 4-[[3-(4-methoxyphenyl)imidazo[1,2-a]pyrazin-8-yl]amino]-2-methyl-N-[2-[2-(triazol-2-yl)ethoxy)ethyl] benzamide] are within 1.5-fold of each other in IC90: 1.2 µM for the first, 1.3 µM for the second.

Going from `COCCOCCOCCNC(=O)c1ccc(Nc2nccn3c(-c4ccc(OC(F)F)cc4)cnc23)cc1C` [Example 150, 4-[[3-[4-(difluoro-methoxy)phenyl]imidazo [1,2-a]pyrazin-8-yl]amino]-N-[2-[2-(2-methoxy-ethoxy)ethoxy]ethyl]-2-methylbenzamide] to `Cc1cc(Nc2nccn3c(-c4ccc(OC(F)F)cc4)cnc23)ccc1C(=O)NCCOCCOCCOCCOCCO` [Example 155, 4-[[3-[4-(difluoro-methoxy)phenyl]imidazo [1,2-a]pyrazin-8-yl]amino]-N-[2-[2-[2-[2-(2-hydroxyethoxy)ethoxy]ethoxy]ethoxy]ethyl]-2-methylbenzamide], the IC90 rises from 1.5 µM to 2.3 µM (1.5-fold).

Work on `Cc1cc(Nc2nccn3c(-c4ccc(OC(F)F)cc4)cnc23)ccc1C(=O)NCCOCCNC(=O)C(N)CCCCN` (centres unmarked) [Example 154, N-[2-[2-(2,6-diaminohexanoyl-amino)ethoxy]ethyl]-4-[[3-[4-(difluoromethoxy)phenyl]imidazo [1,2-a]pyrazin-8-yl]amino]-2-methylbenzamide; hydrochloride] yielded an IC90 of 2.2 µM.
